Read-outs that look alike come from different tables or passages of the source.
Legend:
SHV-5 β-lactamase = biological target: T1, SHV-5 β-lactamase (Klebsiella pneumoniae, UniProt P0A3M1); assay: β-lactamase enzyme inhibition, SHV-5; assay type: biochemical
T1 construct: made in house; host or cells: E. coli BL21(DE3)
Outline: (§1)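 IC50 was the inhibitor concentration halving the initial hydrolysis rate versus no-inhibitor wells, following a 15 min 37° C. enzyme–inhibitor preincubation. Substrates: imipenem read at 300 nm for KPC-2, cefotaxime at 260 nm for SHV-5, and nitrocefin (100 μM final) at 486 nm for OXA-1 and p99 AmpC. Enzymes were recombinant untagged proteins from E. coli BL21(DE3).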

KPC-2 β-lactamase = biological target: T2, KPC-2 β-lactamase (Klebsiella pneumoniae, UniProt Q9F663); assay: β-lactamase enzyme inhibition, KPC-2; assay type: biochemical
T2 construct: made in house; host or cells: E. coli BL21(DE3)
Outline: as §1

[1] = biological target: T3, VIM-2 metallo β-lactamase (Pseudomonas aeruginosa, UniProt Q9K2N0); assay: β-lactamase enzyme inhibition, VIM-2; assay type: biochemical; conditions: Nitrocefin 100 μM, 486 nm; 15 min at 37° C. preincubation; read-out: IC50 VIM-2 (Class B)
T3 construct: made in house; host or cells: E. coli BL21(DE3)
Outline: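 Inhibitor and enzyme sat together 15 min at 37° C before 100 μM nitrocefin (final) was added and 486 nm absorbance read for 10 min. IC50 is the concentration halving initial hydrolysis rate relative to uninhibited wells. Protein came from Q sepharose anion exchange at pH 7.5, repeated to >90% purity.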

p99 AmpC β-lactamase = biological target: T4, p99 AmpC β-lactamase (Enterobacter cloacae, UniProt P05364); assay: β-lactamase enzyme inhibition, p99 AmpC; assay type: biochemical
T4 construct: made in house; host or cells: E. coli BL21(DE3)
Outline: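 Inhibitor and enzyme were incubated 15 min at 37°C first. The enzyme was recombinant p99 AmpC, untagged, from E. coli BL21(DE3), purified by ion-exchange and size-exclusion chromatography.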

OXA-1 β-lactamase = biological target: T5, OXA-1 β-lactamase (Escherichia coli, UniProt P13661); assay: β-lactamase enzyme inhibition, OXA-1; assay type: biochemical; conditions: Nitrocefin 100 μM, 486 nm; 15 min at 37° C. preincubation; read-out: IC50 OXA-1 (Class D)
T5 construct: made in house; host or cells: E. coli BL21(DE3)
Outline: as §1

[2] = system: E. coli ESBL4 expressing CTX-M-15; assay: broth microdilution MIC, E. coli CTX-M-15; assay type: cell-based; conditions: Fixed CAZ (ceftazidime) 4 μg/mL
Outline: (§2)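 CAMHB; strains pre-grown 3-5 h. Test cpd 2-fold dilutions, 32→0.25 μg/mL final, + beta-lactam static 4 μg/mL. CLSI inoculation, 16-20 h at 37° C, visual MIC.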

[3] = system: E. cloacae 144200 expressing Class C P99 AmpC; assay: broth microdilution MIC, E. cloacae P99; assay type: cell-based; conditions: Fixed CAZ (ceftazidime) 4 μg/mL
Outline: as §2

[4] = system: K. pneumoniae 156319 expressing KPC-3; assay: broth microdilution MIC, K. pneumoniae KPC-3; assay type: cell-based; conditions: Fixed Mero (meropenem) 4 μg/mL
Outline: as §2

[5] = system: P. aeruginosa Ps296 expressing VIM-2; assay: broth microdilution MIC, P. aeruginosa VIM-2; assay type: cell-based; conditions: Fixed Mero (meropenem) 4 μg/mL
Outline: as §2

[6] = system: K. pneumoniae A-1797 expressing KPC-2 and VIM-4; assay: broth microdilution MIC, K. pneumoniae KPC-2 and VIM-4; assay type: cell-based; conditions: Fixed Mero (meropenem) 4 μg/mL
Outline: as §2

[7] = system: S. aureus MSSA-7 producing penicillinase PC-1; assay: broth microdilution MIC, S. aureus PC-1; assay type: cell-based; conditions: Fixed Pip (piperacillin) 4 μg/mL
Outline: as §2

[8] = imipenem substrate, 300 nm, 15 min at 37° C. preincubation, read-out: IC50 KPC-2 (Class A)

T2 sequence (Q9F663 25-293, looked up): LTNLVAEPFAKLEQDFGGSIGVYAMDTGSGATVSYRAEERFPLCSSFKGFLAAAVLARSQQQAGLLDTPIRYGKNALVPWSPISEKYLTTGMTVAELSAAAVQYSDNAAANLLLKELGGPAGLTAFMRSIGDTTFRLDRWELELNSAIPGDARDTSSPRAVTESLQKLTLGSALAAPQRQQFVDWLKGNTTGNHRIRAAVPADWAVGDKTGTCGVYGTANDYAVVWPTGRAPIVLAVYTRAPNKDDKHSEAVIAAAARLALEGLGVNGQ
T4 sequence (P05364 21-381): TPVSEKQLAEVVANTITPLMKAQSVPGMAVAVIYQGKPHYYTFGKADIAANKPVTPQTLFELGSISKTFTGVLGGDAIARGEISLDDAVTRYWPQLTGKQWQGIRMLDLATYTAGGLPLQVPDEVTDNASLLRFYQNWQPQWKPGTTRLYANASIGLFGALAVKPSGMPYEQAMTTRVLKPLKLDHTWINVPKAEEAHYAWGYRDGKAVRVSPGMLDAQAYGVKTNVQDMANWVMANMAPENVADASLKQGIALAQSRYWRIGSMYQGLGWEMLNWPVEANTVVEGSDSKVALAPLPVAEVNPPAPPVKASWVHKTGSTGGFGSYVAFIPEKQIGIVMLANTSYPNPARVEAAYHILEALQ
T1 sequence (P0A3M1 22-286): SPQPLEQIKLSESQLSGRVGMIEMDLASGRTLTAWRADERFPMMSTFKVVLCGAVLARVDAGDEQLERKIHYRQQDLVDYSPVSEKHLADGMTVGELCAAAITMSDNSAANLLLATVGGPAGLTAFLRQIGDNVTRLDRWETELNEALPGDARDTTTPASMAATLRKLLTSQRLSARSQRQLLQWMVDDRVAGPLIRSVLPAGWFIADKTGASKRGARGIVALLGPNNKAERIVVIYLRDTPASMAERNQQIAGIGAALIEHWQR
T5 sequence (P13661 26-276): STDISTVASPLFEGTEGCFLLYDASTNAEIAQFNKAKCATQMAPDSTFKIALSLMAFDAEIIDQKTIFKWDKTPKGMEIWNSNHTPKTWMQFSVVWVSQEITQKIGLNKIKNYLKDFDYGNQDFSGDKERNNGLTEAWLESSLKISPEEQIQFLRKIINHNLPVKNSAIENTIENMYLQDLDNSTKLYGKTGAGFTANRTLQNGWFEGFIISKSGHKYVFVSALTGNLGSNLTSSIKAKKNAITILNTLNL

Row | SMILES | IC50 (SHV-5 β-lactamase) [nM] | IC50 (KPC-2 β-lactamase; [8]) [nM] | IC50 [1] [nM] | IC50 (p99 AmpC β-lactamase) [nM] | IC50 (OXA-1 β-lactamase) [nM] | MIC of exemplary compounds in presence of fixed β-lactams, E. coli ESBL4 CTX-M-15 [2] | MIC of exemplary compounds in presence of fixed β-lactams, E. cl. 144200 p99 AmpC [3] | MIC of exemplary compounds in presence of fixed β-lactams, K.P. 156319 KPC-3 [4] | MIC of exemplary compounds in presence of fixed β-lactams, P. aerug. Ps296 VIM-2 [5] | MIC of exemplary compounds in presence of fixed β-lactams, K.P. A-1797 KPC-2 VIM-4 [6] | MIC of exemplary compounds in presence of fixed β-lactams, S. aureus MSSA-7 PC-1 [7] | IC50 (KPC-2 β-lactamase) [nM]
1 | CON=C(C)CCC(=O)N[C@H]1Cc2cccc(C(=O)O)c2OB1O [Example 18, (R)-2-Hydroxy-3-(4-methoxyimino-pentanoylamino)-3,4-dihydro-2H-benzo[e][1,2]oxaborinine-8-carboxylic acid] | < 100 | < 100 | 1000 to 10000 | < 100 | < 100 | C (C represents the MIC in the presence of ≤4 g/mL of a β-lactamase inhibitor) | C (C represents the MIC in the presence of ≤4 g/mL of a β-lactamase inhibitor) | C (C represents the MIC in the presence of ≤4 g/mL of a β-lactamase inhibitor) | B (B represents the MIC in the presence of between 8 and 32 g/mL of a β-lactamase inhibitor) | A (A represents an MIC of the fixed β-lactam antibiotic in the presence of >32 g/mL of a β-lactamase inhibitor) | C (C represents the MIC in the presence of ≤4 g/mL of a β-lactamase inhibitor) | –
2 | CNC(=O)CCC(=O)N[C@H]1Cc2cccc(C(=O)O)c2OB1O [Example 19, (R)-2-Hydroxy-3-(3-methylcarbamoyl-propionylamino)-3,4-dihydro-2H-benzo[e][1,2]oxaborinine-8-carboxylic acid] | < 100 | < 100 | 1000 to 10000 | < 100 | < 100 | C (C represents the MIC in the presence of ≤4 g/mL of a β-lactamase inhibitor) | C (C represents the MIC in the presence of ≤4 g/mL of a β-lactamase inhibitor) | C (C represents the MIC in the presence of ≤4 g/mL of a β-lactamase inhibitor) | A (A represents an MIC of the fixed β-lactam antibiotic in the presence of >32 g/mL of a β-lactamase inhibitor) | B (B represents the MIC in the presence of between 8 and 32 g/mL of a β-lactamase inhibitor) | B (B represents the MIC in the presence of between 8 and 32 g/mL of a β-lactamase inhibitor) | –
3 | CC(=O)NCCC(=O)N[C@H]1Cc2cccc(C(=O)O)c2OB1O [Example 20, (R)-3-(3-Acetylamino-propionylamino)-2-hydroxy-3,4-dihydro-2H-benzo[e][1,2]oxaborinine-8-carboxylicacid] | < 100 | < 100 | 1000 to 10000 | < 100 | < 100 | C (C represents the MIC in the presence of ≤4 g/mL of a β-lactamase inhibitor) | C (C represents the MIC in the presence of ≤4 g/mL of a β-lactamase inhibitor) | C (C represents the MIC in the presence of ≤4 g/mL of a β-lactamase inhibitor) | A (A represents an MIC of the fixed β-lactam antibiotic in the presence of >32 g/mL of a β-lactamase inhibitor) | B (B represents the MIC in the presence of between 8 and 32 g/mL of a β-lactamase inhibitor) | B (B represents the MIC in the presence of between 8 and 32 g/mL of a β-lactamase inhibitor) | –
4 | CS(=O)(=O)CCC(=O)N[C@H]1Cc2cccc(C(=O)O)c2OB1O [Example 21, (R)-2-Hydroxy-3-(3-methanesulfonyl-propionylamino)-3,4-dihydro-2H-benzo[e][1,2]oxaborinine-8-carboxylic acid] | < 100 | < 100 | 1000 to 10000 | < 100 | < 100 | C (C represents the MIC in the presence of ≤4 g/mL of a β-lactamase inhibitor) | C (C represents the MIC in the presence of ≤4 g/mL of a β-lactamase inhibitor) | C (C represents the MIC in the presence of ≤4 g/mL of a β-lactamase inhibitor) | A (A represents an MIC of the fixed β-lactam antibiotic in the presence of >32 g/mL of a β-lactamase inhibitor) | B (B represents the MIC in the presence of between 8 and 32 g/mL of a β-lactamase inhibitor) | C (C represents the MIC in the presence of ≤4 g/mL of a β-lactamase inhibitor) | –
5 | CS(=O)(=O)NCCC(=O)N[C@H]1Cc2cccc(C(=O)O)c2OB1O [Example 22, (R)-2-Hydroxy-3-(3-methanesulfonylamino-propionylamino)-3,4-dihydro-2H-benzo[e][1,2]oxaborinine-8-carboxylic acid] | < 100 | – | 1000 to 10000 | < 100 | < 100 | C (C represents the MIC in the presence of ≤4 g/mL of a β-lactamase inhibitor) | C (C represents the MIC in the presence of ≤4 g/mL of a β-lactamase inhibitor) | C (C represents the MIC in the presence of ≤4 g/mL of a β-lactamase inhibitor) | B (B represents the MIC in the presence of between 8 and 32 g/mL of a β-lactamase inhibitor) | B (B represents the MIC in the presence of between 8 and 32 g/mL of a β-lactamase inhibitor) | C (C represents the MIC in the presence of ≤4 g/mL of a β-lactamase inhibitor) | < 100
6 | NC(=O)NCCC(=O)N[C@H]1Cc2cccc(C(=O)O)c2OB1O [Example 23, (R)-2-Hydroxy-3-(3-ureido-propionylamino)-3,4-dihydro-2H-benzo[e][1,2]oxaborinine-8-carboxylic acid] | 100 to 1000 | < 100 | 1000 to 10000 | < 100 | < 100 | C (C represents the MIC in the presence of ≤4 g/mL of a β-lactamase inhibitor) | C (C represents the MIC in the presence of ≤4 g/mL of a β-lactamase inhibitor) | C (C represents the MIC in the presence of ≤4 g/mL of a β-lactamase inhibitor) | C (C represents the MIC in the presence of ≤4 g/mL of a β-lactamase inhibitor) | B (B represents the MIC in the presence of between 8 and 32 g/mL of a β-lactamase inhibitor) | C (C represents the MIC in the presence of ≤4 g/mL of a β-lactamase inhibitor) | –

Reference: patent US11008346B2, “Beta-lactamase inhibitors” (priority 2014, dated 2021)
